Activity calls are given as the source filed them.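 The calls were made as follows: active = compounds giving half or more protection of infected cells from virus-caused growth loss, again on retest; inactive = the rest.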 A value given as a limit tells only on which side of the number the result lay.

For 52 molecules, EC50, IC50 and outcome results are on record in PubChem BioAssay AID179 (DTP/NCI, 2004).

The test system of this test is CEM cells HIV-1 protection, formazan growth assay. The test is described as follows: NCI AIDS Antiviral Assay. The note with it: for IC50: measured here: growth of uninfected CEM cells. The method, boiled down:
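Human CEM cells, uninfected and HIV-1-infected, received five drug concentrations, and growth was read by soluble formazan assay. Compounds giving at least 50% protection were retested; reproducible 100% protection defined confirmed active.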

In general, EC50 refers to the concentration needed to bring the measured effect to its halfway point. What is called IC50 is the concentration at which inhibition is half-maximal. Consider `CC(C)C(=O)NC(=S)Nc1ccc([N+](=O)[O-])cc1C#N`, for which the EC50 is > 123 µM and the IC50 was > 123 µM. For `COC(c1ccsc1)C(C#N)(C#N)N=Cc1ccsc1` (configuration not stated), the EC50 is > 200 µM and the IC50 came out at 16.2 µM. Take `NC(=O)c1cccc(C2OC(COP(=O)(O)O)C(O)C2O)c1` (configuration not stated): the EC50 is > 661 µM and the concentration for half-maximal inhibition (IC50) worked out at 3.47 µM. Take `C=C1[C@H]2C[C@H]3[C@@H]4N5C[C@]6(C)CCCC47C6[C@@]5(O)CC3([C@@H]1O)[C@H]7[C@H]2O`: the result was inactive. As to `Nc1cnn(C2OC(CO)C(F)C2F)c(=O)n1` (configuration not stated), the EC50 is > 363 µM and the IC50 was > 363 µM. `O=[As](O)(O)c1ccc(Cl)cc1Cl`: the EC50 is > 200 µM and the IC50 turned out to be 95.5 µM.

`C/C(CC(=O)Nc1cccc(C)c1C)=N\NC(N)=S`: the EC50 was > 468 µM and the IC50 came out at 245 µM. For `COc1cc2cc(C(=O)N3CC(CCl)c4ccc(NCCN)cc43)[nH]c2c(OC)c1OC` (configuration not stated) the same measures were > 2 µM and 0.813 µM. For `CCc1ccccc1NC(=O)/C(N=O)=C(/C)O`, in that order: > 151 µM and > 151 µM. For `O=C1C(O)=C(c2ccc(Br)cc2)C(=O)C(O)=C1c1ccc(Br)cc1` the same measures were > 58.9 µM and 22.4 µM. As for `C=C(C)C(=Nc1ccc(Cl)c(Cl)c1)N(C)C`, the outcome was inactive. With `CCC12CC(c3ccccc3)C(C(=O)N1)C(=O)N2` (configuration not stated), the EC50 was > 200 µM and the IC50 was > 200 µM. As for `OC(C#CCN1CCCC1)(c1ccccc1)c1ccc(Br)cc1.[C-]#[O+].[C-]#[O+].[C-]#[O+].[C-]#[O+].[C-]#[O+].[C-]#[O+].[Co].[Co]` (configuration not stated), the EC50 is > 200 µM and the 50% inhibitory concentration (IC50) was found to be 7.08 µM.

Regarding `Cc1ccc(/C=C2\CCS(=O)(=O)c3ccccc3C2=O)cc1`, the EC50 was > 200 µM and the IC50 came to 9.77 µM. For `CCCS(=O)(=O)O`, in that order: > 200 µM and > 200 µM. Turning to `Cc1nc(N)nc2c1CCC(=O)N2`, the EC50 was > 56.2 µM and the IC50 was > 56.2 µM. As for `N[C@@H]1c2c(Br)sc(N3CCOCC3)c2C(=O)[C@@H]1O`, the EC50 was > 200 µM and the IC50 worked out at 105 µM. In the case of `CCOC(=O)C(C)Sc1nnc(COc2ccc(Cl)cc2)n1-c1ccccc1` (configuration not stated), the EC50 is > 100 µM and the IC50 came to 47.9 µM.

`COC[C@@]12CCC(OC)C34[C@@H]5C[C@@]6(O)C(OC(=O)c7ccccc7)[C@@H]5[C@@]5(O[C@@H]5[C@@H]6OC)[C@@H](C(OC)[C@@H]31)[C@@H]4N(C)C2` (some centres not stated): the outcome was inactive. Take `COC(=O)c1cc2cc3c(c(O)c2c(=O)o1)O[C@@]1(Oc2c(O)c4c(c(O)c2[C@H]1OC1CC(OC)C(O)C(C)O1)C(=O)C=C(OC)C4=O)[C@H](O)C3` (some centres not stated): the EC50 was > 200 µM and the IC50 was found to be 3.31 µM.

In the case of `O=C(CSc1cc(-c2ccc(Cl)cc2)s[s+]1)c1ccccc1`, the EC50 is > 200 µM and the IC50 was 52.5 µM. Take `O=C1NC(=S)N/C1=C\c1ccc(Br)s1`: the EC50 was > 200 µM and the IC50 came to 112 µM.

As to `Cc1ccc(C(=O)/C(C#N)=C/Nc2c(C)n(C)n(-c3ccccc3)c2=O)cc1`, the EC50 is > 200 µM and the IC50 is > 200 µM.

For the molecule `O=C1C=C(N2CC2)C(=O)C(N2CC2)=C1N1CC1`, the EC50 is > 10.7 µM and the IC50 was determined as 0.0324 µM. For `c1ccc(C2=Nc3nc4ccccc4n3C(c3ccccc3)C2)cc1` (configuration not stated) the same measures were > 151 µM and > 151 µM.

Regarding `C=CC/C(C(=O)OC)=C(/C(=O)OC)N(CCC)CCC`, the EC50 was > 200 µM and the IC50 was determined as 33.9 µM. For `CC(C)[C@@H]1CC[C@@H](C)C[C@H]1OC(=O)/C=C1\C(C(=O)O[C@@H]2C[C@H](C)CC[C@H]2C(C)C)[C@H]2C=C[C@@H]1O2` (some centres not stated), in that order: > 200 µM and > 200 µM. `Cc1cc([N+](=O)[O-])ccc1N=NC(=O)NNc1ccc([N+](=O)[O-])cc1C`: the EC50 was > 200 µM and the IC50 amounted to 33.9 µM. As to `CC(=O)OCCCCCn1cnc(C(N)=O)c1N`, the EC50 was > 200 µM and the IC50 is > 200 µM. `CC1(C)C2C=CC1(C)C1(CC2)OCCO1` (configuration not stated): the EC50 is > 200 µM and the IC50 is > 200 µM. With `Cc1nn(C(=O)c2ccncc2)c2c1C(c1ccccc1[N+](=O)[O-])SC(N)=N2` (configuration not stated), the result was inactive. On the same count and under the same terms, the value for `Cc1cc2c(cc1C)N1Cc3c(ccc(C)c3C)N(C2)C1` (tested in a mixture with another compound) was “inactive”. For `CN1NC(c2ccccc2)=C(C#N)C(=O)CC1c1cccs1` (configuration not stated), the EC50 was > 200 µM and the IC50 was > 200 µM.

With `O=[N+]([O-])c1cc(F)ccc1S(=O)(=O)c1ccccc1`, the EC50 was > 200 µM and the IC50 came out at 35.5 µM. Consider `Cc1cc(=O)n(CC(=O)O)c2ccccc12`, for which the EC50 is > 200 µM and the IC50 was 105 µM. For `NC(=O)C1=CC2C3C=CC2(O)C(=O)OC3O1` (configuration not stated) the same measures were > 1120 µM and 1.17 µM. `CCC(=O)NC(Nc1ccccc1F)(C(F)(F)F)C(F)(F)F`: the EC50 was > 200 µM and the IC50 was > 200 µM. As to `CSc1nc2c(c(=O)n1C)N=C(c1ccc([N+](=O)[O-])cc1)CC(c1ccccc1)N2` (configuration not stated), the EC50 was > 200 µM and the IC50 was found to be 155 µM. For `CCOC(=O)c1ccc(-c2onc(C)c2Br)[nH]1` the same measures were > 200 µM and 39.8 µM. For `O=C1O/C(=C(/Br)c2ccc(Cl)c(Cl)c2)c2ccccc21` the same measures were > 200 µM and 11.7 µM. With `CSc1n[nH]c(N)c1C(=O)Nc1ccc(Cl)cc1`, the EC50 was 0.457 µM and the IC50 was found to be 1.86 µM. For `CC1(c2ccc[n+](Cc3ccccc3)c2)OCCO1`, in that order: > 398 µM and 380 µM. For `CCCCN=C(NC#N)N(Cc1ccccc1)Cc1ccccc1`, in that order: > 100 µM and 22.9 µM. With `C[PH+](C)CC[PH+](CC[PH+](c1ccccc1)c1ccccc1)c1ccccc1.[C-]#[O+].[C-]#[O+].[C-]#[O+].[Mo]` (configuration not stated), the result was inactive.

In the case of `C=C1c2ccccc2N(S(=O)(=O)c2ccc(C)cc2)C12CCCCC2`, the EC50 was > 100 µM and the IC50 amounted to 38 µM. For `CCC1CCc2c(c(=O)oc3c2cc(OC)c2cccc(OC)c23)C1` (configuration not stated) the same measures were > 110 µM and 87.1 µM.

For `CC(=O)OC1CCC2(C)C(=CCC3C2CCC2(C)C3CC3N(c4ccccc4)C32C(C)=O)C1` (configuration not stated), the EC50 is 6.46 µM and the IC50 came to 20 µM.

Consider `O=C(Nc1ccccn1)Nc1cc(C(F)(F)F)ccc1Cl`, for which the EC50 was > 200 µM and the IC50 turned out to be 182 µM. On to `CCC1(NC(=O)CN)C(=O)NC(=O)NC1=O`, for which the EC50 is > 200 µM and the IC50 is > 200 µM. `O=C(O)[C@@H]1C2C3CC4C2C4C3[C@@H]1C(=O)O`: the result was inactive. In the case of `COc1ccc(Cc2c(N)[nH]c(=O)[nH]c2=O)cc1`, the EC50 was > 200 µM and the IC50 was > 200 µM. For `CCOC(C)OC1CC(n2cc(C)c(=O)[nH]c2=O)OC1CO` (configuration not stated), the EC50 is > 14.8 µM and the IC50 was found to be 13.2 µM.
